The source of these data is ChEMBL document CHEMBL5726667, “Substituted pyrrolo[2,3-b]pyrazines and substituted pyrazolo[3,4-b]pyridines as ITK and JAK kinase inhibitors” (2017).

Experiment [1] deals with T1, Tyrosine-protein kinase ITK/TSK (Homo sapiens, UniProt Q08881).
T1 sequence (Q08881 whole entry): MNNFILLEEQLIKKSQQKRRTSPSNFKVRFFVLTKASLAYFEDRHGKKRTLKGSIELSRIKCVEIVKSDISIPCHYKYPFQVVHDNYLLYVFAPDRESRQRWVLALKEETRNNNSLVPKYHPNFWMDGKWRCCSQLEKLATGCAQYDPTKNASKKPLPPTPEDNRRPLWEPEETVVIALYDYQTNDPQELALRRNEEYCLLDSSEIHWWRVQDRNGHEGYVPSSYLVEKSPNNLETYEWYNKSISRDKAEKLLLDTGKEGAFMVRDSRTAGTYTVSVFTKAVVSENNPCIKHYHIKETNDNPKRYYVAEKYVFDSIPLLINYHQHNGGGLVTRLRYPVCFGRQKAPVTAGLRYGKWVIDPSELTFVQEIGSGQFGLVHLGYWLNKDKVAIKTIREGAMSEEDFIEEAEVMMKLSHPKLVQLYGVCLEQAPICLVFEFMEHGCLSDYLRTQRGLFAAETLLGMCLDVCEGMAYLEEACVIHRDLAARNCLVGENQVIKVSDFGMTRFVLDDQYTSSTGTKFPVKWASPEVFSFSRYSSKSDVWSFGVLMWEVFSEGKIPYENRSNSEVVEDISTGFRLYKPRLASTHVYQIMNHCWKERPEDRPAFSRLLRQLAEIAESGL
Description: In Vitro Inhibition Assay: ITK and JAK3 Kinase assay procedures:Enzyme was incubated with substrate peptide in reaction buffer in the presence and absence of test compounds or Staurosporine. All additions were done on ice, followed by the addition of ATP mix. Wells were uniformly mixed using an Eppendorff plate shaker and incubated at 30° C. for 20 min, and stopped by the addition of 5 μL of 3% ….
Description: (§1) All additions were done on ice, followed by the addition of ATP mix. Wells were uniformly mixed using an Eppendorff plate shaker and incubated at 30° C. for 20 min, and stopped by the addition of 5 μL of 3% phosphoric acid. Volume was increased to 100 μL by adding 0.8% phosphoric acid which was then transferred to PC filter mats (Millipore), pre-equilibrated with 70% ethanol and water. Plates were washed thrice with 100 μL 0.8% phosphoric acid and dried for an hour at 60° C. 100 μL scintillation fluid was added into each well and reading taken in Perkin Elmer TOPCOUNT beta counter.

Experiment [2] concerns the target T2, Tyrosine-protein kinase JAK3 (Homo sapiens, UniProt P52333).
T2 sequence (P52333 whole entry): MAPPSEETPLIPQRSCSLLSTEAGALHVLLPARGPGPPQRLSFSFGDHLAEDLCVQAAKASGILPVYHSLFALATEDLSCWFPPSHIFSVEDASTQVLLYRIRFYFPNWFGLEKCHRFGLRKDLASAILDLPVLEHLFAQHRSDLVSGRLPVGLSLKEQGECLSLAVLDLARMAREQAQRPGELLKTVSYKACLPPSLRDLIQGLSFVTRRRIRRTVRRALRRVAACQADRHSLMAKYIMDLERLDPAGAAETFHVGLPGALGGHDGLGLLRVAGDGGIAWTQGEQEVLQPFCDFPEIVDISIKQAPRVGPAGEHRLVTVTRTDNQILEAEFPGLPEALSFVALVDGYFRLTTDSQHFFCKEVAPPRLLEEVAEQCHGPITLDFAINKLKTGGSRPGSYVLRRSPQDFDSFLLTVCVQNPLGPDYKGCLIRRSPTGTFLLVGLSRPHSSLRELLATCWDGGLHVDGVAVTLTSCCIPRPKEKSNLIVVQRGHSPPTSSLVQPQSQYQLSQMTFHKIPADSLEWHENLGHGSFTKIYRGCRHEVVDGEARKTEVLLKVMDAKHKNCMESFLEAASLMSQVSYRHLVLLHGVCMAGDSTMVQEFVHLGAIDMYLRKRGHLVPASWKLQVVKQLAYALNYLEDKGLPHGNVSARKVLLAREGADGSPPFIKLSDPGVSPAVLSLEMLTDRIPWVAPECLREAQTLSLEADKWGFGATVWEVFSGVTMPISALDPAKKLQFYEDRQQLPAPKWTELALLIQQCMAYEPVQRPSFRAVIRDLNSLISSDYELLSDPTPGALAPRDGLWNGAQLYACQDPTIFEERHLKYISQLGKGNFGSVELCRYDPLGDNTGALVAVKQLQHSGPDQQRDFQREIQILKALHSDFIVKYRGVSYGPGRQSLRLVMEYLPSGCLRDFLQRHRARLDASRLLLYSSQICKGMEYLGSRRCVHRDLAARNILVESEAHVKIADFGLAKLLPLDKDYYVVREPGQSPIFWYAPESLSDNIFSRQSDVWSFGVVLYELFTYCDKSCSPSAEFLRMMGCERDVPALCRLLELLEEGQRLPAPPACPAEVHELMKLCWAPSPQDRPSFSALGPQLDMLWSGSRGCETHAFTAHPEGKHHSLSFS
The experiment is described as above.
Description: as §1

pIC50: −log10 of the molar value.

For `C=CC(=O)Nc1cccc(-c2cnc3c(c2)CC(=O)N3)c1`, the pIC50 in experiment [1] and in experiment [2] was less than 7.00 each time.

On to `CC/C=C/C(=O)Nc1cccc(-c2cnc3[nH]nc(C)c3c2)c1`, for which the pIC50 in experiment [1] and in experiment [2] was less than 7.00 in each case.

In the case of `C=CC(=O)Nc1cccc(-c2cnc3[nH]ccc3c2)c1`, the pIC50 in experiment [1] and in experiment [2] was less than 6.00 each time.

Consider `Cc1c[nH]c2ncc(-c3cccc(NC(=O)/C=C/N(C)C)c3)cc12`, for which the pIC50 in experiment [1] and in experiment [2] was less than 6.00 in each case.

Consider `CC/C=C/C(=O)Nc1cc(-c2cnc3[nH]cc(C)c3c2)ccc1Cl`, for which the pIC50 in experiment [1] and in experiment [2] was less than 7.00 in each case.

With `Cc1c[nH]c2ncc(-c3ccc(Cl)c(NC(=O)/C=C/N(C)C)c3)cc12`, the pIC50 in experiment [1] and in experiment [2] was less than 6.00 throughout.

With `C=CC(=O)Nc1cccc(-c2cnc3[nH]cc(-c4cc5ccc(Cl)cc5[nH]4)c3n2)c1`, the pIC50 in experiment [1] and in experiment [2] was less than 7.00 each time.

For the compound `CC/C=C/C(=O)Nc1cccc(-c2cnc3[nH]cc(C)c3c2)c1`, the pIC50 in experiment [1] and in experiment [2] was less than 6.00 throughout.

For the compound `C=CC(=O)Nc1cccc(-c2cnc3[nH]cc(-c4cc(F)cc(F)c4OC)c3n2)c1`, the pIC50 in experiment [1] and in experiment [2] was less than 7.00 each time.

As to `Cc1c[nH]c2ncc(Nc3cccc(CC#N)c3)cc12`, the pIC50 in experiment [1] and in experiment [2] was less than 6.00 in each case.

Take `C=CC(=O)Nc1cccc(-c2cnc3[nH]ccc3n2)c1`: the pIC50 in experiment [1] and in experiment [2] was less than 6.00 throughout.

Regarding `COc1c(F)cc(F)cc1-c1c[nH]c2ncc(-c3cc(NC(=O)/C(C)=C/C(C)(C)C)ccc3F)cc12`, the pIC50 in experiment [1] and in experiment [2] was greater than 7.00 throughout.
